Experimental data reported in PubChem BioAssay (NCI).
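These data come from cells grown in 96-well plates and exposed to compound for 48 hours at five concentrations. Abbreviation: GI50, concentration required for 50% inhibition of growth. At the TGI there is no net growth.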

Key:
Test in all cases: growth of human tumour cells (NCI), 48 h
786-0 renal = tested on: 786-0 renal
A498 renal = tested on: A498 renal
A549 NSCLC = tested on: A549 NSCLC
ACHN renal = tested on: ACHN renal
BT-549 breast = tested on: BT-549 breast
CAKI-1 renal = tested on: CAKI-1 renal
CCRF-CEM leukemia = tested on: CCRF-CEM leukemia
COLO 205 colon = tested on: COLO 205 colon
DU-145 prostate = tested on: DU-145 prostate
EKVX NSCLC = tested on: EKVX NSCLC
HCC-2998 colon = tested on: HCC-2998 colon
HCT-116 colon = tested on: HCT-116 colon
HCT-15 colon = tested on: HCT-15 colon
HL-60(TB) leukemia = tested on: HL-60(TB) leukemia
HOP-62 NSCLC = tested on: HOP-62 NSCLC
HOP-92 NSCLC = tested on: HOP-92 NSCLC
HS 578T breast = tested on: HS 578T breast
HT29 colon = tested on: HT29 colon
IGROV1 ovarian = tested on: IGROV1 ovarian
K-562 leukemia = tested on: K-562 leukemia
KM12 colon = tested on: KM12 colon
LOX IMVI melanoma = tested on: LOX IMVI melanoma
M14 melanoma = tested on: M14 melanoma
MALME-3M melanoma = tested on: MALME-3M melanoma
MCF7 breast = tested on: MCF7 breast
MDA-MB-231 breast = tested on: MDA-MB-231 breast
MDA-MB-435 = tested on: MDA-MB-435
MDA-MB-468 breast = tested on: MDA-MB-468 breast
MOLT-4 leukemia = tested on: MOLT-4 leukemia
NCI-H226 lung = tested on: NCI-H226 lung
NCI-H23 lung = tested on: NCI-H23 lung
NCI-H460 lung = tested on: NCI-H460 lung
NCI-H522 lung = tested on: NCI-H522 lung
NCI/ADR-RES ovarian = tested on: NCI/ADR-RES ovarian
OVCAR-3 ovarian = tested on: OVCAR-3 ovarian
OVCAR-4 ovarian = tested on: OVCAR-4 ovarian
OVCAR-5 ovarian = tested on: OVCAR-5 ovarian
OVCAR-8 ovarian = tested on: OVCAR-8 ovarian
PC-3 prostate = tested on: PC-3 prostate
RPMI-8226 leukemia = tested on: RPMI-8226 leukemia
RXF 393 renal = tested on: RXF 393 renal
SF-268 CNS = tested on: SF-268 CNS
SF-295 CNS = tested on: SF-295 CNS
SF-539 CNS = tested on: SF-539 CNS
SK-MEL-2 melanoma = tested on: SK-MEL-2 melanoma
SK-MEL-28 melanoma = tested on: SK-MEL-28 melanoma
SK-MEL-5 melanoma = tested on: SK-MEL-5 melanoma
SK-OV-3 ovarian = tested on: SK-OV-3 ovarian
SN12C renal = tested on: SN12C renal
SNB-19 CNS = tested on: SNB-19 CNS
SNB-75 CNS = tested on: SNB-75 CNS
SR leukemia = tested on: SR leukemia
SW-620 colon = tested on: SW-620 colon
T-47D breast = tested on: T-47D breast
TK-10 renal = tested on: TK-10 renal
U251 CNS = tested on: U251 CNS
UACC-257 melanoma = tested on: UACC-257 melanoma
UACC-62 melanoma = tested on: UACC-62 melanoma
UO-31 renal = tested on: UO-31 renal

CC(=O)N1CCN(Cc2ccc3c(NNC(=O)c4cnccn4)nc4cc(F)ccc4n23)CC1
GI50 (786-0 renal): 0.342 µM
TGI (786-0 renal): 6.55 µM
GI50 (A498 renal): 22.7 µM
TGI (A498 renal): 37.8 µM
GI50 (A549 NSCLC): 0.596 µM
TGI (A549 NSCLC): 17.5 µM
GI50 (ACHN renal): 0.311 µM
TGI (ACHN renal): 12.3 µM
GI50 (BT-549 breast): 0.995 µM
TGI (BT-549 breast): 19.6 µM
GI50 (CAKI-1 renal): 0.477 µM
TGI (CAKI-1 renal): 18.8 µM
GI50 (CCRF-CEM leukemia): 0.374 µM
TGI (CCRF-CEM leukemia): 10.6 µM
GI50 (COLO 205 colon): 0.436 µM
TGI (COLO 205 colon): 11.4 µM
GI50 (DU-145 prostate): 0.873 µM
TGI (DU-145 prostate): > 100 µM
GI50 (EKVX NSCLC): 0.312 µM
TGI (EKVX NSCLC): 10.3 µM
GI50 (HCC-2998 colon): 0.96 µM
TGI (HCC-2998 colon): 19 µM
GI50 (HCT-116 colon): 0.309 µM
TGI (HCT-116 colon): 18.8 µM
GI50 (HCT-15 colon): 0.197 µM
TGI (HCT-15 colon): 19 µM
GI50 (HL-60(TB) leukemia): 0.461 µM
TGI (HL-60(TB) leukemia): 4.54 µM
GI50 (HOP-62 NSCLC): 0.41 µM
TGI (HOP-62 NSCLC): 23.6 µM
GI50 (HOP-92 NSCLC): 0.331 µM
TGI (HOP-92 NSCLC): 14.6 µM
GI50 (HS 578T breast): 13.2 µM
TGI (HS 578T breast): > 100 µM
GI50 (HT29 colon): 0.501 µM
TGI (HT29 colon): 21 µM
GI50 (IGROV1 ovarian): 0.784 µM
TGI (IGROV1 ovarian): > 52.9 µM
GI50 (K-562 leukemia): 0.753 µM
TGI (K-562 leukemia): 33.5 µM
GI50 (KM12 colon): 0.537 µM
TGI (KM12 colon): > 81.3 µM
GI50 (LOX IMVI melanoma): 0.371 µM
TGI (LOX IMVI melanoma): 3.09 µM
GI50 (M14 melanoma): 0.333 µM
TGI (M14 melanoma): 2.24 µM
GI50 (MALME-3M melanoma): 1.22 µM
TGI (MALME-3M melanoma): 10.9 µM
GI50 (MCF7 breast): 0.898 µM
TGI (MCF7 breast): 31.2 µM
GI50 (MDA-MB-231 breast): 0.736 µM
TGI (MDA-MB-231 breast): 25.2 µM
GI50 (MDA-MB-435): 1.51 µM
TGI (MDA-MB-435): > 100 µM
GI50 (MDA-MB-468 breast): 0.525 µM
TGI (MDA-MB-468 breast): 3.39 µM
GI50 (MOLT-4 leukemia): 0.387 µM
TGI (MOLT-4 leukemia): 15.5 µM
GI50 (NCI-H226 lung): 0.742 µM
TGI (NCI-H226 lung): 11.2 µM
GI50 (NCI-H23 lung): 0.909 µM
TGI (NCI-H23 lung): 13.2 µM
GI50 (NCI-H460 lung): 0.408 µM
TGI (NCI-H460 lung): > 36 µM
GI50 (NCI-H522 lung): 1.26 µM
TGI (NCI-H522 lung): 15.7 µM
GI50 (NCI/ADR-RES ovarian): 1.17 µM
TGI (NCI/ADR-RES ovarian): 12.3 µM
GI50 (OVCAR-3 ovarian): 0.724 µM
TGI (OVCAR-3 ovarian): 30.5 µM
GI50 (OVCAR-4 ovarian): 0.64 µM
TGI (OVCAR-4 ovarian): 41.7 µM
GI50 (OVCAR-5 ovarian): 1.09 µM
TGI (OVCAR-5 ovarian): 24.4 µM
GI50 (OVCAR-8 ovarian): 0.454 µM
TGI (OVCAR-8 ovarian): > 34.1 µM
GI50 (PC-3 prostate): 0.525 µM
TGI (PC-3 prostate): > 52.4 µM
GI50 (RPMI-8226 leukemia): 0.823 µM
TGI (RPMI-8226 leukemia): > 39.7 µM
GI50 (RXF 393 renal): 1.45 µM
TGI (RXF 393 renal): 12.4 µM
GI50 (SF-268 CNS): 0.609 µM
TGI (SF-268 CNS): > 100 µM
GI50 (SF-295 CNS): 0.29 µM
TGI (SF-295 CNS): 29.9 µM
GI50 (SF-539 CNS): 0.787 µM
TGI (SF-539 CNS): 6.04 µM
GI50 (SK-MEL-2 melanoma): 1.28 µM
TGI (SK-MEL-2 melanoma): 11.4 µM
GI50 (SK-MEL-28 melanoma): 0.624 µM
TGI (SK-MEL-28 melanoma): 31.6 µM
GI50 (SK-MEL-5 melanoma): 0.605 µM
TGI (SK-MEL-5 melanoma): 4.98 µM
GI50 (SK-OV-3 ovarian): 0.492 µM
TGI (SK-OV-3 ovarian): 13.7 µM
GI50 (SN12C renal): 0.864 µM
TGI (SN12C renal): > 100 µM
GI50 (SNB-19 CNS): 1.2 µM
TGI (SNB-19 CNS): > 100 µM
GI50 (SNB-75 CNS): 1.39 µM
TGI (SNB-75 CNS): 99.3 µM
GI50 (SR leukemia): 0.389 µM
TGI (SR leukemia): 10.7 µM
GI50 (SW-620 colon): 0.633 µM
TGI (SW-620 colon): > 63 µM
GI50 (T-47D breast): 1.7 µM
TGI (T-47D breast): 36.8 µM
GI50 (TK-10 renal): 0.304 µM
TGI (TK-10 renal): 45.7 µM
GI50 (U251 CNS): 0.505 µM
TGI (U251 CNS): 48.7 µM
GI50 (UACC-257 melanoma): 1.68 µM
TGI (UACC-257 melanoma): 10.5 µM
GI50 (UACC-62 melanoma): 0.435 µM
TGI (UACC-62 melanoma): 2.21 µM
GI50 (UO-31 renal): 0.163 µM
TGI (UO-31 renal): 7.66 µM
